Measured values: US20060235076A1, “Medicinal composition for treating infection with drug-resistant staphylococcus aureus” (priority 2003, published 2006)
Read-outs that look alike come from different tables or passages of the source.

How the values were obtained:
[1] = test system: MRSA; test: Potentiating effect of galloyl quinic acid derivatives for the antibacterial activity of oxacillin (agar plate dilution method, MIC); assay type: cell-based, Staphylococcus aureus
Experimental: (§1) According to the agar plate dilution method defined by Japan Society of Chemotherapy, MIC (Minimum inhibitory concentration) was determined. CAMHA was prepared by adding 50 mg/l of Ca-ion, 25 mg/l of Mg-ion, and 2% of NaCl to Mueller-Hinton II Agar (MHA), and it was used as a medium for use in the measurement of sensitivity. The bacterial liquid was incubated at 37° C. overnight and diluted to 10^6 CFU/ml with saline.
It was confirmed that the known substances shown below were contained in “Tara” and their MICs were determined as described in example 2 with respect to the effects of the combination use with oxacillin

[2] = test system: MRSA and MSSA; test: Antibacterial activity of gallic acid, various gallates and multivalent phenol derivatives alone (agar plate dilution method, MIC); assay type: cell-based, Staphylococcus aureus; conditions: Staphylococcus aureus
Experimental: as §1
MIC for gallic acid, various gallates and multivalent phenol derivatives alone with MRSA and MSSA were determined as described in experiment 2.

COC(=O)C1(O)CC(O)C(OC(=O)c2cc(O)c(O)c(O)c2)C(OC(=O)c2cc(O)c(O)c(O)c2)C1 (centres unmarked) [Methyl 4,5-digalloylquinate, methyl 4,5-digalloylquinate]
excellent: effect of combination use with oxacillin (words) ([1]; listed as methyl 4,5-digalloylquinate)
follows: effect of combination use with oxacillin (words) [1]

COC(=O)c1cc(O)c(O)c(O)c1 [Methyl gallate, methyl gallate]
62.5 µg/mL: MIC ([2]; MRSA #9, read-out: MIC alone) | MIC ([2]; MRSA #10, read-out: MIC alone) | MIC ([2]; MSSA #1029, read-out: MIC alone)
250 µg/mL: MIC ([2]; ATCC 6538 / MRSA / MSSA, ATCC6538, read-out: MIC alone) | MIC ([2]; COL, read-out: MIC alone) | MIC ([2]; MRSA #1, read-out: MIC alone) | MIC ([2]; MRSA #3, read-out: MIC alone) | MIC ([2]; MRSA #5, read-out: MIC alone) | MIC ([2]; MRSA #7, read-out: MIC alone) | MIC ([2]; MRSA #8, read-out: MIC alone) | MIC ([2]; MRSA #12, read-out: MIC alone) | MIC ([2]; MRSA #20, read-out: MIC alone) | MIC ([2]; MRSA #21, read-out: MIC alone) | MIC ([2]; MRSA #22, read-out: MIC alone) | MIC ([2]; MRSA #24, read-out: MIC alone) | MIC ([2]; MSSA #1003, read-out: MIC alone) | MIC ([2]; MSSA #1010, read-out: MIC alone) | MIC ([2]; MSSA #1020, read-out: MIC alone) | MIC ([2]; MSSA #1032, read-out: MIC alone) | MIC50 ([2]; compound alone, over all strains of Table 3-1, read-out: MIC50)
125 µg/mL: MIC ([2]; MRSA #2, read-out: MIC alone) | MIC ([2]; MRSA #4, read-out: MIC alone) | MIC ([2]; MRSA #6, read-out: MIC alone) | MIC ([2]; MRSA #16, read-out: MIC alone) | MIC ([2]; MRSA #17, read-out: MIC alone) | MIC ([2]; MRSA #18, read-out: MIC alone) | MIC ([2]; MSSA #1023, read-out: MIC alone)

CCCCCOC(=O)c1ccc(O)cc1 [n-Amyl 4-hydroxybenzoate]
62.5 µg/mL: MIC50 [2] | MIC ([2]; ATCC 6538 / MRSA / MSSA) | MIC ([2]; COL, compound alone, read-out: MIC) | MIC ([2]; MRSA #1, compound alone, read-out: MIC) | MIC ([2]; MRSA #2, compound alone, read-out: MIC) | MIC ([2]; MRSA #3, compound alone, read-out: MIC) | MIC ([2]; MRSA #4, compound alone, read-out: MIC) | MIC ([2]; MRSA #5, compound alone, read-out: MIC) | MIC ([2]; MRSA #7, compound alone, read-out: MIC) | MIC ([2]; MRSA #10, compound alone, read-out: MIC) | MIC ([2]; MRSA #12, compound alone, read-out: MIC) | MIC ([2]; MRSA #16, compound alone, read-out: MIC) | MIC ([2]; MRSA #17, compound alone, read-out: MIC) | MIC ([2]; MRSA #18, compound alone, read-out: MIC) | MIC ([2]; MRSA #20, compound alone, read-out: MIC) | MIC ([2]; MRSA #21, compound alone, read-out: MIC) | MIC ([2]; MRSA #22, compound alone, read-out: MIC) | MIC ([2]; MRSA #24, compound alone, read-out: MIC) | MIC ([2]; MSSA #1003, compound alone, read-out: MIC) | MIC ([2]; MSSA #1010, compound alone, read-out: MIC) | MIC ([2]; MSSA #1020, compound alone, read-out: MIC) | MIC ([2]; MSSA #1029, compound alone, read-out: MIC) | MIC ([2]; MSSA #1032, compound alone, read-out: MIC)
31.3 µg/mL: MIC ([2]; MRSA #6, compound alone, read-out: MIC) | MIC ([2]; MRSA #8, compound alone, read-out: MIC) | MIC ([2]; MRSA #9, compound alone, read-out: MIC) | MIC ([2]; MSSA #1023, compound alone, read-out: MIC)
